Measured values as given in paper PMC9367672, “In vitro differences in toddalolactone metabolism in various species and its effect on cytochrome P450 expression” (Pharmaceutical Biology, 2022).

Assays:
[1] = Enzyme kinetics of toddalolactone metabolism in rat liver microsomes (oxidative metabolism and glucuronidation); type: in vitro ADME; conditions: rat, liver microsomes, pH 7.4, RLMs, Vmax/Km
Experimental: (§1) The CYP reaction system (200 μL) consisted of 0.1 M potassium phosphate buffer (pH 7.4), an NADPH-generating system (1 mM NADPH, 10 mM G-6-P, 1 unit/mL G-6-PD, 4 mM MgCl2), and liver microsomes or recombinant human microsomes (supersomes). Each of the in vitro enzymatic assays using liver microsomes was linear with respect to incubation time and amount of protein. After a pre-incubation at 37 °C for 3 min, the reactions were initiated by adding NADP^+. After incubating for 60 min, the reactions were quenched by adding 200 μL of ice-cold acetonitrile. Samples were centrifuged at 18,000 g for 15 min at 4 °C and 10 μL of supernatant was analyzed using an HPLC system. NADPH or CYP enzyme sources were not used in the control group to ensure that the metabolic reactions were CYP- and NADPH-dependent. All incubation assays were completed in triplicate. The data are presented as mean ± standard deviation (SD).
(§2) In the UGT reaction system, liver microsomes were incubated in 200 μL of the reaction system containing 4 mM UDPGA, 5 mM MgCl2, 20 µg/mL alamethicin, and 50 mM Tris-HCl buffer (pH 7.4). After pre-incubation at 37 °C for 3 min, UDPGA was added to the mixture to initiate the reactions. The mixtures were incubated at 37 °C for 60 min, followed by the addition of 200 μL of cold methanol to terminate the reactions. After centrifugation at 18,000 g for 15 min, 10 μL of the supernatant was analyzed by HPLC.
(§3) The enzyme kinetics of toddalolactone in oxidative metabolism and glucuronidation were determined by incubating liver microsomes (0.2 mg/mL) or CYPs (15 nM) with different concentrations of toddalolactone (1–200 μM). The kinetic parameters including Km and Vmax were obtained by fitting the experimental data to the Michaelis–Menten equation (Equation (1)), biphasic kinetics equation (Equation (2)), or substrate inhibition equation (Equation (3)) (He et al. [2018]), and the results were graphically represented on Eadie–Hofstee plots. The in vitro intrinsic clearance (CLint) was calculated based on the Vmax/Km ratio. Metabolites were quantified using the standard curve for toddalolactone because of the absence of metabolite standards. All incubations were repeated in three independent experiments. Kinetic constants were expressed with mean ± SD: (1) V=Vmax×[S]/Km+[S] (2) V=Vmax1×[S]/Ks1+[S]+Vmax2×[S]/Ks2+[S] (3) V=Vmax×[S]/Ks+[S]+[S]^2/Ksi where v is the rate of reaction, Vmax is the estimated maximum velocity, [S] is the substrate concentration, and Km is the affinity constant of the substrate; Vmax1 and Vmax2 represent the estimated maximum velocity of the two metabolic phases; Ks1 and Ks2 represent the affinity constants for two metabolic phases; Ks and Ksi are the substrate affinity and inhibition constants, respectively.
(§4) The enzyme kinetics in oxidative metabolism and glucuronidation of toddalolactone were studied, and preliminary experiments were performed to ensure that metabolites were formed in the linear range of both reaction time and microsomal protein concentration. The metabolite with the largest peak area was used to calculate the kinetic parameter values (Km, Vmax and CLint). Based on the results of toddalolactone metabolism in different species, the kinetic parameter values in RLMs, DLMs, MLMs, HLMs, RAMs, MIMs, PLMs, CYP1A1 and CYP3A5 were calculated using P4, P4, P4, P4, P2, P2, P4, P4 and P4 data in oxidative metabolism, respectively. In the glucuronidation reaction, the kinetic parameter values in RLMs, MLMs, HLMs, RAMs and PLMs were calculated using P5, P6, P6, P6 and P5 data, respectively.

RLMs = experiment: as above; type: in vitro ADME; conditions: RLMs; for V max: toddalolactone 1–200 μM
Experimental: as §1, §2, §3, §4

[2] = Enzyme kinetics of toddalolactone metabolism in dog liver microsomes (oxidative metabolism); type: in vitro ADME, beagle dog; conditions: beagle, dog, liver microsomes, pH 7.4; DLMs; P450-catalyzed oxidation; P4 formation; Vmax/Km
Experimental: as §1
(§5) The enzyme kinetics of toddalolactone in oxidative metabolism and glucuronidation were determined by incubating liver microsomes (0.2 mg/mL) or CYPs (15 nM) with different concentrations of toddalolactone (1–200 μM). […] The in vitro intrinsic clearance (CLint) was calculated based on the Vmax/Km ratio. Metabolites were quantified using the standard curve for toddalolactone because of the absence of metabolite standards. […]
as §4, with “The metabolite with the largest peak area was used to calculate the kinetic parameter values (Km, Vmax and CLint).” left out

DLMs = experiment: as above; type: in vitro ADME, beagle dog; conditions: P450-catalyzed oxidation, P4 formation
Experimental: as §1, §5
as §4, with “The metabolite with the largest peak area was used to calculate the kinetic parameter values (Km, Vmax and CLint).” left out

[3] = Enzyme kinetics of toddalolactone metabolism in mini pig liver microsomes (oxidative metabolism and glucuronidation); type: in vitro ADME; conditions: pig, Vmax/Km
Experimental: as §1, §2, §3, §4

PLMs = experiment: as above; type: in vitro ADME; conditions: for V max: toddalolactone 1–200 μM
Experimental: as §1, §2, §3, §4

CYP3A5 = experiment: Western blot of CYP3A5 protein expression in HepG2 cells; type: cell-based; conditions: 0, 10 and 50 μM, 24 h
Experimental: Hep G2 cells were seeded into 100 mm Petri dishes and treated with different concentrations of toddalolactone (0, 10 and 50 µmol/L) for 24 h. Total protein was extracted using RIPA lysis buffer containing proteinase inhibitor (BestBio, Shanghai, China). After the protein concentration was measured using a bicinchoninic acid (BCA) assay kit (Beyotime, Shanghai, China), samples were electrophoretically transferred to polyvinylidene difluoride (PVDF) membranes. After blocking with TTBS (0.5% Tween 20, 10 mM Tris-HCl, pH 7.5, 150 mM NaCl) containing 5% non-fat milk for 1 h at room temperature, the membrane was incubated with antibodies against β-Actin, CYP1A1, and CYP3A5 overnight at 4 °C. Then, membranes were washed with TBS (10 mM Tris-HCl, pH 7.5, 150 mM NaCl) containing 0.05% Tween 20 three times and further incubated with HRP-conjugated secondary antibodies against rabbit (for β-actin, CYP1A1 and CYP3A5) for 1 h at room temperature.

[4] = P450-catalyzed oxidation, P4 formation
[5] = glucuronide metabolism, P5 formation

COc1cc2oc(=O)ccc2c(OC)c1C[C@@H](O)C(C)(C)O [toddalolactone]
microsomal CLint [1, 4]: 1.31 µL/min/mg | microsomal CLint [1, 5]: 0.69 µL/min/mg | K m (RLMs; [4]): 121.13 ± 31.89 µM | V max (RLMs; [4]): 158.26 ± 20.52 pmol/min/mg protein | K m (RLMs; [5]): 79.11 ± 22.56 µM | V max (RLMs; [5]): 55.89 ± 6.61 pmol/min/mg protein | microsomal CLint [2]: 0.19 µL/min/mg | K m (DLMs): 148.93 ± 38.37 µM | V max (DLMs; toddalolactone 1–200 μM): 29.76 ± 7.27 pmol/min/mg protein | microsomal CLint ([3]; liver microsomes, pH 7.4, PLMs, P450-catalyzed oxidation, P4 formation): 0.69 µL/min/mg | microsomal CLint ([3]; mini pig liver microsomes (PLMs), UGT reaction system, pH 7.4, glucuronide metabolism, P5 formation): 0.36 µL/min/mg | K m (PLMs; [4]): 135.36 ± 32.39 µM | V max (PLMs; [4]): 94.24 ± 11.61 pmol/min/mg protein | K m (PLMs; [5]): 93.28 ± 22.35 µM | V max (PLMs; [5]): 34.12 ± 3.62 pmol/min/mg protein | protein expression of CYP3A5 (CYP3A5): did not show any significant change
